A short description of data set [1]: Serum hPTH(1-34) concentration after repeated intradermal injection (Reference Example 1). The format is in vivo, rat. To be noted: intradermal injection three times at 1 hour intervals, 1 μg/kg or 5 μg/kg per dose. As to the method: Female SD rats (12 weeks old) were ovariectomized and intradermally injected with an aqueous solution of hPTH(1-34) three times at 1 hour intervals at a one time administration dose of 1 μg/kg or 5 μg/kg. Concentration of hPTH(1-34) in serum of the rats was measured by radio immunoassay.

Data set [2] is described as follows: Serum hPTH(1-34) concentration during transdermal iontophoresis (Example 1). The format is in vivo, rat. To be noted: male SD rats; iontophoresis anode patch 200 μg or 400 μg; 0.1 mA/cm^2, 30 min current and 45 min rest repeated three times; radio immunoassay; FIG. 3. As to the method: Hair on the abdominal skin of male, SD rats (7 weeks old) was shaved off. To the shaved part was attached the iontophoresis apparatus which comprises an anode patch containing 200 μg or 400 μg of hPTH(1-34) and a cathode patch without hPTH(1-34), as mentioned above. The apparatus was connected to an electric generator (50 kHz and 50% duty), and an electric current application using constant transport current (0.1 mA/cm^2) for 30 minutes and a 45-minute rest interval (corresponding to blood concentration of one pulse) was repeated three times. During the repetitions, blood was taken periodically, and concentration of hPTH(1-34) in serum was measured by radio immunoassay.

Molecules are shown by their SMILES.

This is an account of results in patent publication US6526316B2, “Iontophoresis method” (Hisamitsu Pharmaceutical Co., Inc., priority 1997, dated 2003).

In the case of `CC[C@H](C)[C@H](NC(=O)[C@H](CCC(=O)O)NC(=O)[C@H](CO)NC(=O)[C@@H](NC(=O)[C@@H](N)CO)C(C)C)C(=O)N[C@@H](CCC(N)=O)C(=O)N[C@@H](CC(C)C)C(=O)N[C@@H](CCSC)C(=O)N[C@@H](Cc1cnc[nH]1)C(=O)N[C@@H](CC(N)=O)C(=O)N[C@@H](CC(C)C)C(=O)NCC(=O)N[C@@H](CCCCN)C(=O)N[C@@H](Cc1cnc[nH]1)C(=O)N[C@@H](CC(C)C)C(=O)N[C@@H](CC(N)=O)C(=O)N[C@@H](CO)C(=O)N[C@@H](CCSC)C(=O)N[C@@H](CCC(=O)O)C(=O)N[C@@H](CCCN=C(N)N)C(=O)N[C@H](C(=O)N[C@@H](CCC(=O)O)C(=O)N[C@@H](Cc1c[nH]c2ccccc12)C(=O)N[C@@H](CC(C)C)C(=O)N[C@@H](CCCN=C(N)N)C(=O)N[C@@H](CCCCN)C(=O)N[C@@H](CCCCN)C(=O)N[C@@H](CC(C)C)C(=O)N[C@@H](CCC(N)=O)C(=O)N[C@@H](CC(=O)O)C(=O)N[C@H](C(=O)N[C@@H](Cc1cnc[nH]1)C(=O)N[C@@H](CC(N)=O)C(=O)N[C@@H](Cc1ccccc1)C(=O)O)C(C)C)C(C)C` [hPTH(1-34)], the “maximum blood concentrations vs dose” value in data set [1] is “proportional to the injected doses”. Also, the “blood concentration profile of hPTH(1-34) in serum” value in data set [1] (ovariectomized female SD rats, radio immunoassay, FIG. 1) is listed as “three sharp pulses”; in data set [2], “three sharp peaks”.
